Test results published in patent publication US20140154717A1, “METHOD FOR DETECTING CANCER CELL USING FLUORESCENTLY LABELED L-GLUCOSE DERIVATIVE, AND CANCER CELL-IMAGING AGENT COMPRISING FLUORESCENTLY LABELED L-GLUCOSE DERIVATIVE” (priority 2011, published 2014).
Entries after “also recorded” stand apart in the source; their conditions may differ. Each block holds one compound with its values, some of them ahead of it.

Columns and labels:
[1] = Maximum excitation and fluorescence wavelength; format: physicochemical
[2] = tested on: mouse insulinoma cells (MIN6); test: Uptake into MIN6 cells with or without inhibitors, fluorescence microplate reader (Flex Station); format: cell-based; conditions: 200 μM, 5 minutes
Protocol: A difference in the uptake of 2-NBDLG (200 μM) and 2-NBDG (200 μM) into mouse insulinoma cells (MIN6) each applied for 5 minutes was analyzed quantitatively by a fluorescence microplate reader Flex Station (manufactured by Molecular Devices Corporation) in the condition whether or not various inhibitors are present. The well used for measurement was a 96-well clear bottomed well plate μ CLEAR-PLATE (Greiner bio-one, BLACK, 96 well, #655090) having longitudinally […] to 12 twelve columns, and MIN6 cell suspension prepared at a proportion of 6×10^5 cells/mL was seeded uniformly into wells from line B to line G at the third column and the fifth column each in an amount of 15 μL. For medium exchange, the half quantity was exchanged every two days in 0 to 4 DIV (days in vitro), and from 5 DIV or later, exchanged every day, and on days 10 to 13 (10 to 13 DIV), the cells were subjected to an experiment. Line A and line H were used as a control for checking correct washout, without seeding cells. In the fourth column, cells were not present, and wells in this column were used as a blank containing only Krebs Ringer buffer solution (KRB, containing 0.1 mM gap junction inhibitor carbenoxolone and 5.6 mM glucose). Evaluation was done in a way that 2-NBDLG or 2-NBDG was charged in each tube of a 8-strip PCR tube, and sucked using a 8-channel pipette and dropped simultaneously into wells. In this way, administration to wells for 2-NBDLG and to wells for 2-NBDG can be done simultaneously, making reliable evaluation possible. As described above, cells are present in 12 wells in the third and the fifth two columns, and these were divide into 4 groups each having 3 wells according to a difference either 2-NBDLG or 2-NBDG and whether an inhibitor is present or absent. Specifically, when checking the effect by the presence or absence of a GLUT inhibitor Cytochalasin B (10 μM) on the uptake of 2-NBDLG (200 μM) and 2-NBDG (200 μM), first, in wells, which are planned to be measured in the presence of Cytochalasin B, Cytochalasin B was added 5 minutes prior to the administration of the fluorescently labeled glucose derivative. Before administration of a fluorescently labeled glucose derivative, the autofluorescence was measured in each well. The measurement was done with Flex Station in Well Scan Mode and in the Bottom Read position at Ex 470 nm, Em 540 nm, Cut off 495 nm, Averaging 3, and Photomultiplier sensitivity: high. In Well Scan Mode of the fluorescence microplate reader Flex Station, one well was divided into nine observation areas and these are measured independently. The presence of approximately 5000 cells in each of 9-divided areas was separately confirmed by Z section measurement of a realtime deconvolution microscope. 2-NBDG and 2-NBDLG were administered with or without Cytochalasin B (37° C., 5 minutes), and after cessation of administration, an operation of adding 250 μL of a KRB solution containing no fluorescently labeled glucose into 50 μL of a solution in a well was repeated 7 times while measuring with a stopwatch, thereby performing washout until the fluorescence intensities of wells in line A and line H set as a control group became equal to the fluorescence intensity of the blank well containing no cell. This process required 7 minutes, and even if cells having broken plasma membrane condition are brought into contact with 2-NBDG and 2-NBDLG, and even if these compounds are once taken up into the cell, these compounds are already eliminated out of the cell and are washed away in measurement, therefore, contribution to an increase in the fluorescence intensity in the whole observation area was judged to be in an ignorable level. This was supported by a separate pharmacological inhibition experiment in which the increase in the fluorescence intensity nearly disappears in the presence of an inhibitor. The above-described method was carried out similarly in the case of other inhibitors. […]

tumor cells (C6 glioma) = test: In vivo fluorescent imaging using C6 tumor model mice (rat glioma C6 cells transplanted subcutaneously in nude mice); design: species or system mouse
Protocol: C6 cells were prepared according to an ordinary method so that the cell number was 2×10^7 cells/mL.
C6 cells were seeded on a 10 cm petri dish, allowed to stand still in a CO2 incubator, and cultured at 37° C. The culture medium was exchanged once every two days.
1 g/L glucose-containing Dulbecco's modified Eagle's Medium (DMEM) (Nacalai No. 08456-65), to which Fetal Bovine Serum (Equitech-Bio SFBM) was added so that the final concentration was 10% and penicillin-streptomycin (Nacalai No. 26253-84) was added so that the final concentration was 1%, was used.
5 to 6-week old athymic nude mice (BALB/cAJcl-nu/nu) were transplanted with 50 μL of a cell suspension adjusted to 2×10^7 cells/mL subcutaneously around the root of right hind paw, under isoflurane anesthesia. The transplanted tumor cells were observed until growing to about 200 to 300 mm^3, and used in vivo fluorescent imaging.
C6 tumor model mice were allowed to stand still in an in vivo fluorescence imaging apparatus IVIS (registered trademark) Kinetics (Caliper Life sciences) under isoflurane anesthesia and autofluorescence of the mouse skin was measured, and subsequently, 400 nmol (100 μL) of 2-NBDLG or 2-NBDG dissolved in physiological saline was administered from the tail vein over a period of 30 seconds, and measurement of the fluorescence imaging was started again from one minute after starting administration. The in vivo fluorescence imaging was measured at an excitation wavelength of 465 nm using a GFP filter (transmittable fluorescence wavelength: 515-575 nm). The measurement was conducted for 45 minutes, and images were taken every one minute during the initial 20 minute and every 5 minutes from 20 to 45 minutes, obtaining 25 images in total. The accumulated values (fluorescence value) of 2-NBDLG and 2-NBDG in the interested area were obtained by subtracting the autofluorescence images from the 25 images taken after administration of 2-NBDLG or 2-NBDG.
A vial of 0.5 mg of 2-NBDLG or 2-NBDG was dissolved in 400 μL of physiological saline directly before the experiment, to prepare a solution having a final concentration of 400 nmol/100 μL.

[3] = tested on: acutely dissociated neurons; test: Confocal imaging of 2-NBDLM+2-TRLG mixture in acutely dissociated neurons of substantia nigra pars reticulata; format: cell-based, mouse
Protocol: NaCl 150 mM, KCl 5 mM, MgCl2 1 mM, CaCl2 2 mM, HEPES 10 mM, pH was adjusted to 7.4 by 1M Tris(2-amino-2-hydroxymethyl-1,3-propanediol) solution. The glucose concentration was 10 mM. For the purpose of inhibiting entrance and elimination of fluorescently labeled mannose via a gap junction/hemichannel, 0.1 mM Carbenoxolone (SIGMA #C4790) was added.
NaCl 124 mM, NaHCO3 26 mM, KCl 5 mM, KH2PO4 1.24 mM, CaCl2 2.4 mM, MgSO4.7H2O 1.3 mM, Glucose 10 mM, adjusted to pH7.4 by 95% O2-5% CO2 aeration.
A solution prepared by dissolving 5 mg of poly-L-lysine hydrobromide (SIGMA P6282) in 50 mL of 0.15 M boric acid (adjusted to pH 8.4 with […]) was stocked and refrigerated. This stock solution was diluted at 1/500 to 1/1000 with 0.15 M boric acid, and a cover slip (13 mm×22 mm, Matsunami No. 0 glass) was immersed in the diluted solution and allowed to fix at room temperature for 20 minutes, then, rinsed with distilled water and naturally dried.
Since 2-NBDLM is a stereoisomer of 2-NBDLG and both compounds have the same molecular weight, these compounds were prepared by basically the same method as for preparation of 2-NBDLG liquid and 2-NBDLG+2-TRLG mixture described in the prior publication WO2010/016587 of the present inventors. The concentration of a solution for the administration was as follows. The whole quantity of a 0.5 mg vial was dissolved in 14.6 mL of a HEPES solution for image acquisition to give a 2-NBDLM solution having a final concentration of 100 μM. The dissolving method was carried out similarly to that for preparation of a 2-NBDLG solution in Example 3.
Acutely dissociated neuronal cells were prepared as described below according to the same method as described in the prior publication WO2010/016587 of the present inventors.
Postnatal 13 to 17-day old (juvenile stage) C57BL/6J mice were anesthetized deeply with urethane (i.p. 1.6 g/kg), decapitated according to an ordinary method, then, brain was taken out while pouring a cold Ringer's solution (0° C.) for dissociation, and placed on an ice-cold petri dish and immediately trimmed, then, coronally sectioned brain slices having a thickness of 400 or 500 μm were prepared by a linear slicer (Dosaka Pro7) in a cold Ringer's solution (0° C.). Then, the slice was allowed to restore for 1 hour at room temperature in a chamber (Acrylic incubation chamber manufactured by Harvard Apparatus) containing the above-described Ringer's solution circulating therein through which 95% O2-5% CO2 had been aerated.
The brain slice was immersed in an enzyme solution (31° C.; kept at pH7.4 by aeration with 95% O2-5% CO2) prepared by dissolving a proteolytic enzyme Pronase (10 mg/60 mL) in the above-described Ringer's solution and enzymatically treated. After predetermined period, the enzymatic reaction was stopped by immediately immersing the brain slice in 50-100 mL of a 10 mM glucose-containing HEPES solution at room temperature.
A 60 or 100 mm plastic dish having a silicon plate attached to the bottom was filled with a 10 mM glucose-containing HEPES solution (room temperature, obtained by removing Carbenoxolon from a HEPES solution for confocal image acquisition), and the above-described brain slice was immersed in the solution. Two 27 gauge syringe needles were used to immobilize the brain slice, and left and right mesencephalic substantia nigra pars reticulata were punched out under a microscope with a 18 gauge syringe needle having a tip deformed into an ellipsoidal shape, and preserved at room temperature in the above-described HEPES solution (35 mm culture dish).
Neurons were dissociated by trituration with glass pipettes adjusted to have various point diameters, and allowed to adhere to a glass cover slip coated with poly-L-lysine.
Administration of a mixture was carried out in the same manner as the method of administration to MIN6 cells described in Example 3 (4) to (6).

[4] = 100 μM 2-NBDLM+20 μM 2-TRLG for 5 minutes

Maximum fluorescence wavelength [1]: 570 nm
Structure (SMILES): CN(C)S(=O)(=O)c1ccc(N[C@H](C=O)[C@H](O)[C@@H](O)[C@@H](O)CO)c2nonc12 [2-DBDLG]

Structure (SMILES): O=[N+]([O-])c1ccc(NC2C(O)OC(CO)[C@@H](O)[C@@H]2O)c2nonc12 (stereo partly drawn) [2-NBDG, 2-[N-(7-nitrobenz-2-oxa-1,3-diazole-4-yl)amino]-2-deoxy-D-glucose, reference compound]
effect of GLUT inhibitor Cytochalasin B on uptake into MIN6 cells ([2]; 37° C., Cytochalasin B (10 µM, CB)): significant decrease | uptake into MIN6 cells in buffer containing Na+ versus no Na+ ion (SGLT) ([2]; 37° C., Na(−) buffer, choline substituted): no significant difference | effect of Phloretin on uptake into MIN6 cells ([2]; Phloretin (150 μM, PHT)): underwent inhibition of the uptake | fluorescence values at tumor-transplanted part (Tumor) versus normal tissue (BG), FIG. 3 (tumor cells (C6 glioma); 400 nmol i.v., temporal change over 45 minutes, same result in 6 examples): fluorescence values at normal tissue (red square, BG) are larger than at the tumor-transplanted part | time from which accumulations at the tumor cell-transplanted part were recognized (tumor cells (C6 glioma); 400 nmol/100 μL from the tail vein): around 5 minutes after administration | contrast between tumor-transplanted part and normal tissue (adipocyte-rich dorsal part near neck) (tumor cells (C6 glioma); 400 nmol/100 μL from the tail vein, non-fasted mice): poor contrast; also recorded: not sufficient | uptake/accumulation in normal tissue (tumor cells (C6 glioma); 400 nmol/100 μL from the tail vein, normal tissue (fat tissue on the back, between back bones, muscle)): Intense accumulations

Structure (SMILES): O=[N+]([O-])c1ccc(NC2C(O)OC(CO)[C@H](O)C2O)c2nonc12 (stereo partly drawn) [2-NBDLM, 2-Deoxy-2-[N-(7-nitrobenz-2-oxa-1,3-diazol-4-yl)amino]-L-mannose]
Maximum excited wavelength [1]: 472 nm | Maximum fluorescence wavelength [1]: 539 nm | fluorescence in degraded cells, 10 minutes after cessation of administration ([3]; 100 μM 2-NBDLM+20 μM 2-TRLG): already decreased significantly | fluorescence in healthy neuron, 10 minutes after cessation of administration ([3]; 100 μM 2-NBDLM+20 μM 2-TRLG): preserved in the cell | fluorescence in healthy neuron, 22 minutes after cessation of administration ([3]; 100 μM 2-NBDLM+20 μM 2-TRLG): preserved in the cell | uptake into healthy neuron, 2 minutes after cessation of administration ([3]; 100 μM 2-NBDLM+20 μM 2-TRLG): all cells take up | uptake into normal neurons (conclusion) ([3]; 100 μM 2-NBDLM+20 μM 2-TRLG): taken up into normal mouse neurons | uptake into degraded cells during administration [3, 4]: completely invading a cell | uptake into healthy neuron during administration [3, 4]: taken up into a cell during administration

Structure (SMILES): O=[N+]([O-])c1ccc(NC2C(O)OC(CF)[C@H](O)C2O)c2nonc12 (stereo partly drawn) [6-F-2-NBDLG, 2,6-Dideoxy-6-fluoro-2-[N-(7-nitrobenz-2-oxa-1,3-diazol-4-yl)amino]-L-glucopyranose]
Maximum excited wavelength [1]: 472 nm | Maximum fluorescence wavelength [1]: 538 nm
